Measured values from ChEMBL document CHEMBL1128462, “In vivo and in vitro studies on the neurotoxic potential of 6-hydroxydopamine analogs” (J Med Chem, 1995).

Experiments:
[1] = species on record: Rattus norvegicus; assay: Evaluated for the stimulation of synaptosomal release of Dopamine (release constant); type: functional
[2] = species on record: Mus musculus; assay: Long term depletion of Norepinephrine (NE) in Whole mouse Brain at a low dose (60 nmol); type: functional
[3] = species on record: Mus musculus; assay: Long term depletion of Dopamine(DA) in Whole mouse Brain at a low dose (60 nmol); type: functional
[4] = target: Norepinephrine transporter (Rattus norvegicus, UniProt Q9WTR4); assay: Evaluated for the Competitive inhibition of uptake of norepinephrine
[5] = species on record: Rattus norvegicus; assay: Evaluated for the stimulation of synaptosomal release of norepinephrine (release constant); type: functional
[6] = target: Sodium-dependent dopamine transporter (Rattus norvegicus, UniProt P23977); assay: Evaluated for the Competitive inhibition of uptake of dopamine transporter
[7] = species on record: Mus musculus; assay: Long term depletion of Serotonin(5-HT) in Whole mouse Brain at a low dose (60 nmol); type: functional
[8] = species on record: Mus musculus; assay: Long term depletion of Dopamine(DA) in Whole mouse Brain at a high dose (300 nmol); type: functional
[9] = species on record: Mus musculus; assay: Long term depletion of Serotonin(5-HT) in Whole mouse Brain at a high dose (300 nmol); type: functional
[10] = species on record: Mus musculus; assay: Long term depletion of Norepinephrine (NE) in Whole mouse Brain at a high dose (300 nmol); type: functional

Sequence of Norepinephrine transporter (Q9WTR4 whole entry): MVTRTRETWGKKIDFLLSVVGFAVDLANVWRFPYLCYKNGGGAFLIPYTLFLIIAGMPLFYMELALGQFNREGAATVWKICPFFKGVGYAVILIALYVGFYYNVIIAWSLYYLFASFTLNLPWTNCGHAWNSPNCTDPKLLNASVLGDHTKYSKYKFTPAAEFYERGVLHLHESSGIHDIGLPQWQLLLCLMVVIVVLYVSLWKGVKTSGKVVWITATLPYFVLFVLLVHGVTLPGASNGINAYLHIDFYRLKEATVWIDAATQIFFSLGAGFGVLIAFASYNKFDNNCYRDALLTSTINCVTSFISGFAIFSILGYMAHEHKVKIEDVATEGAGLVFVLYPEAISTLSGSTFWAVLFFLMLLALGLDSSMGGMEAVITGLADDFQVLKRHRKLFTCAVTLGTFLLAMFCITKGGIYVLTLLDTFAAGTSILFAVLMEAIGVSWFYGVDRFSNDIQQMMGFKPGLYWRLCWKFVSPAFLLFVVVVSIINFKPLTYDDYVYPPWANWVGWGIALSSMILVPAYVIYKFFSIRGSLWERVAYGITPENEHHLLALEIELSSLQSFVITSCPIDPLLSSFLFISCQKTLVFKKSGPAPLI
Sequence of Sodium-dependent dopamine transporter (P23977 whole entry): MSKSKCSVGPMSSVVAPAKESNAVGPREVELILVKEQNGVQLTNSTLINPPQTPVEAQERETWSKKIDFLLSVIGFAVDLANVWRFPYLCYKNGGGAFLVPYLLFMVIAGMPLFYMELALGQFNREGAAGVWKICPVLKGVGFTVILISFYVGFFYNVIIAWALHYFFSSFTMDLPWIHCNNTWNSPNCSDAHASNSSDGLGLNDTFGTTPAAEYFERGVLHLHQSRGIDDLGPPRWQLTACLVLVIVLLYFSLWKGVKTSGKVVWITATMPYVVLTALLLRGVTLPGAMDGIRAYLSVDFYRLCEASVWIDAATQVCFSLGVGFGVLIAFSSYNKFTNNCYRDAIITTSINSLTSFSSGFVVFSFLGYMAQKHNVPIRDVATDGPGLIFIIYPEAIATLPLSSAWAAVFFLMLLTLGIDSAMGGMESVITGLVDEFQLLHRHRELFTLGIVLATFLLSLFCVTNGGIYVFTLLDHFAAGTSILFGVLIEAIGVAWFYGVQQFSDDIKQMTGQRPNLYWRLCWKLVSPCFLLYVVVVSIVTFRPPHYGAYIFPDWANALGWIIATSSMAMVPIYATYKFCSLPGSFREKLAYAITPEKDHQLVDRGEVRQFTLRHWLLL

Compound	EC50 [1] [nM]	Control [2] [%]	Control [3] [%]	Ki [4] [nM]	EC50 [5] [nM]	Ki [6] [nM]	Control [7] [%]	percent of control [8] [%]	Control [9] [%]	Control [10] [%]
CC(N)Cc1cc(O)c(O)cc1O (configuration not stated)	101000	25	87	26	317000	16	93			
CC(N)Cc1cc(O)c(O)cc1N (configuration not stated)	7000	32	96	8	21000	9	72	77	59	26
NCCc1cc(N)c(O)cc1O	105000	40	96	13	212000	47	91	84	96	36
NCCc1cc(O)c(O)cc1N	3000	40	90	11	23000	17	78	79	74	37
